The target in data set [1] is T1, EDG2 (Homo sapiens, UniProt Q92633). Nature of the data set: IL6 gene expression in LPA-stimulated HFLS-OA treated with EDG2 antagonist. Also noted: OA patient-derived fibroblast-like synovial cells (HFLS-OA) were purchased from Cell application Co; host or cells: HFLS-OA (OA patient-derived fibroblast-like synovial cells). It is filed as cell-based. The note with it: Ki16425 0, 0.3, 1, 3, 10 and 33 μM for 30 minutes, then 10 μM LPA, 2 hours, n=4.
Description: Furthermore, the involvement of EDG2 in the LPA-induced inflammatory cytokine raising reaction in human OA synovial cells was analyzed using an antagonist against EDG2. […] As the EDG2 antagonist, Ki16425 (Sigma) was used. OA patient-derived fibroblast-like synovial cells (HFLS-OA) were purchased from Cell application Co. The HFLS-OA was cultured using the attached Synoviocyte growth medium. The number of passages for the cells used was 4 or 5. The HFLS-OA was seeded to a 24-well plate at a ratio of 1×10^5 cells/well, and cultured using the attached Synoviocyte growth medium until they became confluent. Twelve hours before performing LPA stimulation, the medium was replaced with Ham's F-12 (Invitrogen) medium containing 0.1% fatty acid free bovine serum albumin (Sigma). Twelve hours after the medium replacement, the cells were treated with Ki16425 (0, 0.3, 1, 3, 10 and 33 μM) for 30 minutes. Thereafter, the cells were stimulated with 10 μM LPA; 2 hours later, total RNA was extracted using ISOGEN (Nippon Gene), and the amount expressed of the IL6 gene was quantified by a method in accordance with Example 10 (n=4).

For data set [2], the target named is T1, EDG2. As to the kind of experiment: Intracellular Ca2+ concentration (FLIPR tetra) in McA-RH7777 cells stably expressing EDG2. The note with it: LPA 0.3 μM, Ki16425 10^−8 to 10^−5 M added previously. Format: cell-based. Details: Dainippon Pharmaceutical Co., Ltd. (cells); host or cells: McA-RH7777. The procedure:
A forcible expression vector comprising an ORF sequence of human EDG2 [hEDG2-pcDNA3.1(+)] was purchased from UMR cDNA Resource Center. This plasmid was introduced into McA-RH7777 (Dainippon Pharmaceutical Co., Ltd.) using Lipofectamine LTX (Invitrogen), and the cells were cultured in a medium containing Geneticin for 14 to 20 days to acquire cells that stably express EDG2.
Next, an evaluation was made using FLIPR tetra (Molecular Devices) to confirm that stimulation with LPA raised intracellular Ca concentrations via the EDG2 expressed. That is, these cells were seeded to a 384-well plate, 0.03 to 10 μM LPA (Sigma) was added to each well, and it was confirmed that rises in intracellular Ca^2+ concentration occurred. LPA dose-dependently.

The target of the next data set is T2, EDG7 (Homo sapiens, UniProt Q9UBY5).
T2 sequence (Q9UBY5 1-353): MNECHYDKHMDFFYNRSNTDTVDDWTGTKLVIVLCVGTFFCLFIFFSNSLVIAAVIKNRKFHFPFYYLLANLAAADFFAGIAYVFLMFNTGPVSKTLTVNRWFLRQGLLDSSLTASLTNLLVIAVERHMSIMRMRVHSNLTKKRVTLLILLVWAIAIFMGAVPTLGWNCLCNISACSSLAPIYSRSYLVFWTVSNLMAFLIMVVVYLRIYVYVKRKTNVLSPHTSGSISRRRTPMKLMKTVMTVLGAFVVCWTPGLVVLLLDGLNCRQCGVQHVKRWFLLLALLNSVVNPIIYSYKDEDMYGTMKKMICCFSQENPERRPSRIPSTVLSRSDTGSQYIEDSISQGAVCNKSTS
Particulars: no test described; cited from earlier work.

For data set [3], the system named is EDG2 gene transcription activity (i-EDG2-09 region). As to the kind of experiment: i-EDG2-09 luciferase reporter assay in PMA-stimulated E11 cells. It is filed as cell-based, human. The note with it: both constructs (G allele and A allele), 10 ng/ml PMA, 5 hours after stimulation. The text has this:
An AP-1-binding motif described in a report by Duncliffe et al. [Immunity. […] 28; 276(52):48871-8.] is present 11 to 16 by upstream. The existence of a transcriptional factor-binding motif where AP-1 and NFAT are located in tandem is known in a plurality of genes [Macian F, Lopez-Rodriguez C and Rao A., Oncogene. 2001 Apr. 30; 20(19):2476-89. Review.]. Meanwhile, in the surrounding sequence, including i-EDG2-12, no distinct transcriptional factor binding sequence was found. […] Oligonucleotides (sense strand and antisense strand) wherein 4 bp at the restriction endonuclease NheI adhesion end is added on the 5′ side of a region centering at i-EDG2-09, and comprising the AP-1 and NFAT-binding motifs (a region at −2809 to −2839 from the transcription initiation point of EDG2), and 4 bp at the XbaI adhesion end is added on the 3′ side, were prepared for both alleles of i-EDG2-09 (G or A). After these oligonucleotides were converted to double-stranded DNAs for each allele, reporter constructs wherein each allele was integrated in tandem 5 times in the NheI site of the pGL3-promoter vector (Promega), which is a luciferase reporter vector, while retaining the orientation were prepared for G allele and A allele. […] Five hours after the stimulation, the cells were solubilized, and luciferase activity was measured using the PicaGene Dual SeaPansy System (Toyo Ink). […]
On the technique in general: A reporter such as luciferase makes a cellular process visible.

Data set [4] has as its system synovial cell line E11 cells. As to the kind of experiment: EDG2 gene expression in PMA-stimulated E11 cells (quantitative real-time PCR). It is filed as cell-based, human. The note with it: PMA 10 ng/ml, from 2 hours to 12 hours after addition, n=4. The procedure:
To analyze the expression of the four LPA receptors examined in Example 10 in joint tissue, an expression quantitation analysis by quantitative real-time PCR was performed on articular cartilages and synovial tissues of knee OA patients. The method used was in accordance with Example 10. Total RNA was extracted from each tissue (articular cartilage n=4, synovial membrane n=3) using Isogen (Nippon Gene), and reverse transcription was performed on 500 ng of total RNA using Multiscribe reverse transcriptase (Applied biosystems) and a random hexamer, whereby a cDNA was obtained. Quantitation of the LPA receptor genes was performed using QuantiTect STBR Green PCR (Qiagen) on the ABI PRISM 7700 sequence detection system (Applied biosystems) as directed in the documentation attached. The number of copies of each gene was calculated using a working curve. The amount of each gene was standardized by being divided by the number of copies of the G3PDH gene. A Toyobo product was used as the primer for the G3PDH gene. […] The amount of the EDG2 gene expressed was higher in synovial membrane at a level about 10 times as high as in articular cartilage. […]
The method used is described below. […] In these total RNAs, the amount expressed of the EDG2 gene relative to G3PDH was measured in accordance with the method described in Example 11. […]
(Real-time PCR tracks product formation cycle by cycle.)

Data set [5] has as its system transcriptional factor AP-1. Nature of the data set: AP-1 cis-reporter luciferase assay in PMA-stimulated E11 cells. Format: cell-based, human. The note with it: 0.1, 1 and 10 ng/ml PMA, 24 hours after stimulation, n=2. An excerpt:
Because the EDG2 gene is an LPA receptor that is dominant in OA synovial membrane, it was decided to perform a functional analysis of OA susceptibility polymorphs using synovial cells. E11 cells are a cell line established by immortalizing fibroblast-like cells from a rheumatoid arthritis patient synovial membrane with simian SV40 large T antigen (Abe et al, J Rheumatol. 1997 March; 24(3):420-9.). In the 5′-flanking region of EDG2, where i-EDG2-09 and 12 are present, an AP-1-binding motif is present. […] The method used is described below. The E11 cells were cultured using Dulbecco's Modified Eagle's Medium (DMEM, Sigma) containing 10% fetal bovine serum (FBS), antibiotics (100 U/ml penicillin G and 100 μg/ml streptomycin) and L-glutamine ([…]). On the day before the transfection, the E11 cells were seeded to a 24-multiwell plate to obtain a cell density of 5×10^4 cells/well. The following day, using Fugene-6 (Roche diagnostics), 200 ng of the reporter construct and 4 ng of pRL-TK (Promega) as the internal standard for correction of transfection efficiency, per well were transfected. Twenty-four after the transfection, the cells were cultured on a medium containing 0.1, 1 and 10 ng/ml PMA. Twenty-four hours after the stimulation, the cells were solubilized, and luciferase activity was measured using PicaGene Dual SeaPansy System (Toyo Ink). The number of cases was n=2.

Data set [6] relates to EDG2. Nature of the data set: EDG2 knockdown by siRNA in LPA-stimulated HFLS-OA. Format: cell-based, human. The note with it: n=4. The procedure: To analyze the involvement of EDG2 in the LPA-induced inflammatory cytokine raising reaction in human OA synovial cells, obtained in Example 17, an investigation using an siRNA was performed. The method used is described below. An siRNA against EDG2 was designed by utilizing an siRNA design support system available from the Takara Bio Web site (http://bio.takara.co.jp). Synthesis of the siRNA was outsourced to Takara Bio. The control siRNA used was such that the sequence of an siRNA against asporin was scrambled. OA patient-derived fibroblast-like synovial cells (HFLS-OA) were purchased from Cell application Co. The HFLS-OA was cultured using the attached Synoviocyte growth medium. The number of passages for the cells used was 4 or 5. The HFLS-OA was seeded to a 24-well plate at a ratio of 1×10^5 cells/well, and cultured using the attached Synoviocyte growth medium. The following day, the siRNA against EDG2 was introduced into the HFLS-OA to obtain a final concentration of 11 nM, using the Trans-IT-TKO transfection regent (Mirus Co.), according to the attached protocol. […] Twelve hours after the medium replacement, the cells were stimulated with 10 μM LPA; 2 hours later, total RNA was extracted using ISOGEN (Nippon Gene), and the amount of the IL6 gene expressed was quantified by a method in accordance with Example 10 (n=4).

T1 sequence (Q92633 whole entry): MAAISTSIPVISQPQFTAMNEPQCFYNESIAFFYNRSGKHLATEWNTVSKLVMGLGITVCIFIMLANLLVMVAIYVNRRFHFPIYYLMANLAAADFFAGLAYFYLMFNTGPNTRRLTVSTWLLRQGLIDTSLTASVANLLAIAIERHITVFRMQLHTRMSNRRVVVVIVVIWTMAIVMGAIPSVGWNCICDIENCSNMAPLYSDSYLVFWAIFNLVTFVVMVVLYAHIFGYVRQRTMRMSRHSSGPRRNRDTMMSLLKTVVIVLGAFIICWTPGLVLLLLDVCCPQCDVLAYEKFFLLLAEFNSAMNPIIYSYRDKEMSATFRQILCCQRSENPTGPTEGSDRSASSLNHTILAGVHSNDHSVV

In the case of `Cc1noc(-c2ccc(CSCCC(=O)O)cc2)c1NC(=O)OC(C)c1ccccc1Cl` (centres unmarked) [Ki16425], the “suppression of the rise in the expression of the IL6 gene by LPA” value on EDG2 [1] was “dose-dependently”. For the same compound, the “suppression of elevation of intracellular Ca2+ concentration by LPA stimulation” value on EDG2 [2] is on record as “suppressed dose-dependently”. In addition, the “antagonist activity against EDG7” value at EDG7 is “antagonist activity”.
On to `CCCCCCCCCCCCCC(=O)O[C@@H]1[C@@H](C)[C@@]2(O)[C@@H](C=C(CO)C[C@]3(O)C(=O)C(C)=C[C@@H]23)[C@@H]2C(C)(C)[C@]12OC(C)=O` [PMA, phorbol 12-myristate 13-acetate], for which the “luciferase activity of i-EDG2-09 reporter constructs” value in data set [3] was “rose significantly”. Moreover, the “amount expressed of the EDG2 gene relative to G3PDH” value in data set [4] was “rose over time”. Besides, in data set [5], the “luciferase activity (AP-1 binding motif reporter)” value is “rose PMA dose-dependently”.
With “siRNA against EDG2: siRNA used in EDG2 knockdown; sense GAAAUGAGCGCCACCUUUATT (SEQ ID NO 40), antisense UAAAGGUGGCGCUCAUUUCTT (SEQ ID NO 41) (chemistry not given here)”, in the data set on EDG2 [6] (siRNA 11 nM, 10 μM LPA, 2 hours), the “amount expressed of the IL6 gene, which rises in response to LPA” value is given as “significantly suppressed”. Also, the “amount of EDG2 expressed” value with EDG2 [6] (siRNA final concentration 11 nM) is “significantly suppressed”.

These data come from patent US20100239501A1, “GENE SENSITIVE TO BONE/JOINT DISEASE AND USE THEREOF” (RIKEN, priority 2007, published 2010).
